Earlier results as cited in patent publication US11058694B2, “Nutritional supplements for growth enhancement in pre-pubertal adolescents” (Nutritional Growth Solutions LTD, priority 2014, dated 2021).

Tests used:
[1] = versus placebo, daily syrup for six months
[2] = 33 randomized controlled intervention trials
[3] = 6-12 months follow-up, normal serum zinc levels

[Fe] [iron]
increase in hemoglobin concentrations, effect size (iron interventions, 95% CI: 0.46, 2.51): 1.49 | effect of supplementation intervention on child growth (iron supplementation): no significant effect

[Zn] [zinc]
mean height for age Z-score [1]: decreased to a greater extent than placebo | responses in height and in weight increments [2]: significant positive responses | height or weight-SDS [3]: did not significantly changed

vitamin A
effect of supplementation interventions on growth (vitamin A supplementation): no significant effect on growth
